Here are results for two molecules from ChEMBL document CHEMBL4251670, “Cyclopiamines C and D: Epoxide Spiroindolinone Alkaloids from Penicillium sp. CML 3020” (J Nat Prod, 2018).

Experiment [1] is described as follows: Cytotoxicity against human NCH421K cells after 72 hrs by CellTiter-Glo luminescent assay. The experiment is classed as functional, cell-based.
The next experiment relates to SW480. Briefly: Cytotoxicity against human SW480 cells after 72 hrs by CellTiter-Glo luminescent assay. The experiment is classed as functional, cell-based. Particulars: SW480, 72 h.
Experiment [2] in a line: Cytotoxicity against human MEC1 cells after 72 hrs by CellTiter-Glo luminescent assay. Format: functional, cell-based. Particulars: MEC1, 72 h.
The subject of a further experiment is MCF7. Put plainly: Cytotoxicity against human MCF7 cells after 72 hrs by CellTiter-Glo luminescent assay. Format: functional, cell-based. Particulars: MCF7, 72 h. For orientation: Cellular ATP, detected with luciferase, serves as a proxy for viable cell number.
A further experiment deals with EVSA-T. Briefly: Cytotoxicity against human EVSA-T cells after 72 hrs by CellTiter-Glo luminescent assay. The experiment is classed as functional, cell-based.
In another experiment the test system is MDA-MB-231. Briefly: Cytotoxicity against human MDA-MB-231 cells after 72 hrs by CellTiter-Glo luminescent assay. Format: functional, cell-based. Particulars: MDA-MB-231, 72 h.
The test system of a further experiment is Escherichia coli. Briefly: Antibacterial activity against Escherichia coli MB2884 measured after overnight incubation. Format: functional.
For a further experiment, the system named is Klebsiella pneumoniae. Briefly: Antibacterial activity against Klebsiella pneumoniae ATCC 700603 measured after overnight incubation. Format: functional.
A further experiment deals with Acinetobacter baumannii. Briefly: Antibacterial activity against Acinetobacter baumannii MB5973 measured after overnight incubation. Format: functional.
A further experiment deals with Pseudomonas aeruginosa. Briefly: Antibacterial activity against Pseudomonas aeruginosa MB5919 measured after overnight incubation. The experiment is classed as functional.
For a further experiment, the system named is Staphylococcus aureus. Briefly: Antibacterial activity against methicillin-resistant Staphylococcus aureus MB5393 measured after overnight incubation. Format: functional.
The next experiment has as its system Aspergillus fumigatus. Put plainly: Antifungal activity against Aspergillus fumigatus ATCC 46645 measured after overnight incubation. The experiment is classed as functional.
The next experiment has as its system Candida albicans. Put plainly: Antifungal activity against Candida albicans MY1055 measured after overnight incubation. The experiment is classed as functional.

As usually defined, the IC50 is the concentration needed to halve the response being measured. What is called MIC is the lowest concentration that inhibits growth of the organism. A high value points to weaker potency. On to `CC1(C)[C@@H](O)C(=O)c2c(O)ccc3c2N1C(=O)[C@@]31C[C@]2([N+](=O)[O-])CN3C[C@@H]4O[C@@H]4[C@@H]3C[C@H]2C1(C)C`, for which the half-inhibitory concentration (IC50) (in experiment [1]; with SW480; in experiment [2]; with MCF7; in the experiment with EVSA-T; in the experiment on MDA-MB-231) was greater than 180 µM throughout. Further, the minimal inhibitory concentration (MIC) against Escherichia coli, in the experiment with Klebsiella pneumoniae, in the experiment with Acinetobacter baumannii, with Pseudomonas aeruginosa, against Staphylococcus aureus and with Aspergillus fumigatus was greater than 64 µg/mL throughout. In the experiment with Candida albicans, this molecule yielded an MIC greater than 64 µg/mL.
Turning to `COc1ccc2c3c1C(=O)[C@H](O)C(C)(C)N3C(=O)[C@@]21C[C@]2([N+](=O)[O-])CN3C[C@@H]4O[C@@H]4[C@@H]3C[C@H]2C1(C)C`, the IC50 (in experiment [1]; in the experiment with SW480; in [2]; in the experiment with MCF7; with EVSA-T; in the experiment on MDA-MB-231) was greater than 180 µM each time. Also, the MIC against Escherichia coli, with Klebsiella pneumoniae, against Acinetobacter baumannii, in the experiment on Pseudomonas aeruginosa, against Staphylococcus aureus and with Aspergillus fumigatus was greater than 64 µg/mL each time. The molecule further displayed an MIC in the experiment with Candida albicans greater than 64 µg/mL.
